Data reported in ChEMBL document CHEMBL1146674, “Effective irreversible alkylating reagents based on the structure of clavulones” (Bioorg Med Chem Lett, 2004).

test system: HeLa; experiment: Cytotoxicity in HeLa S3 cells (human uterocervical carcinoma) was determined; type: functional, cell-based; details: Homo sapiens, HeLa; read-out: IC50

Structure (SMILES) | IC50 [µM]
O=C1C=CC(O)(CC#Cc2ccccc2)/C1=C/c1ccccc1 (stereo unspecified) | 0.015
O=C1CC(SCCO)C(O)(CC#Cc2ccccc2)/C1=C/c1ccccc1 (stereo unspecified) | 0.021
CC(=O)OC1(CC#Cc2ccccc2)C=CC(=O)C1=Cc1ccccc1 (stereo unspecified) | 0.024
O=C1C=CC(CC#Cc2ccccc2)(OC2CCCCO2)/C1=C/c1ccccc1 (stereo unspecified) | 1.1

same assay, conditions: hela

Structure (SMILES) | IC50 [µM]
O=C1CC(SCCO)/C(=C\C#Cc2ccccc2)C1C(SCCO)c1ccccc1 (stereo unspecified) | > 1000
O=C1CC(SCCO)/C(=C/C#Cc2ccccc2)C1C(SCCO)c1ccccc1 (stereo unspecified) | > 1000
